Source: patent publication US9408885B2, “Combinations of therapeutic agents for treating melanoma” (VIB VZW, priority 2011, dated 2016)

How the values were obtained:
[1] = system: MDM4 protein in A375 cells; assay: MDM4 protein expression level, A375; format: cell-based, human; settings: A375, 5 μM, 24 hours
Protocol: (§1) FIG. 4: AKT inhibitors destabilize the MDM4 protein levels in melanomas.
(§2) In the present example we applied the Akt IV inhibitor on two different melanoma cell lines (i.e., the human amelanotic melanoma cell line A375 and the metastatic 451-lu human melanoma cell line, the latter also described in D. Herlyn et al. (1990), Cancer Research 50, 2296-2302).
(§3) Cells, adult tissue samples, or tumors were lysed in Giordano buffer (50 mM Tris-HCl (pH 7.4); 250 mM NaCl; 0.1% Triton X-100; 5 mM EDTA) containing phosphatase and protease inhibitors (Sigma). The adult tissue samples were sonicated three times 10 sec. The protein concentration was determined by Bradford assay (OD 595 nm; Bio-Rad Protein Assay) and 40 μg of each sample were fractionated by SDS-PAGE (Invitrogen; NuPAGE® Novex® 4-12% Bis-Tris Gel). The fractionated extracts were then transferred to a PVDF membrane (iBlot® Dry Blotting System). Membranes were blocked in Tris-buffered saline, 0.2% Tween-20 (TBST) containing 5% or 10% non-fat dry milk, and subsequently incubated with the appropriate primary antibody. […] After five washes with TBST, proteins were detected by enhanced chemiluminescense “ECL Western Blotting Detection Reagents” (Amersham Biosciences) or “SuperSignal West Femto Maximum Sensitivity Substrate” (Thermo Scientific) and visualized by exposure to X-ray film (Amersham Biosciences). […]

[2] = system: MDM4 protein in 451-lu cells; assay: MDM4 protein expression level, 451-lu; format: cell-based, human; settings: 5 μM, 24 hours
Protocol: as §1, §2, §3

[3] = system: MM031 melanoma cells; settings: MM031, 6.25-50 μM Cisplatin or 25-200 μM Melphalan, 24 hours
Protocol: (§4) Cell viability was measured at 24 hours by CellTiter-Glo assay. Data represent the mean (±SD) of at least three biological replicates. […] Data represent the mean (±SD) of at least three biological replicates. […] Data represent the mean (±SD) of at least three biological replicates.

[4] = system: MM011 melanoma cells; settings: MM011, 6.25-50 μM Cisplatin or 25-200 μM Melphalan, 24 hours
Protocol: as §4

[5] = system: p53 pathway in MM cell lines overexpressing MDM4; assay: p53 tumor suppressor response (p53 and p21 protein levels) in short-term cultured melanoma cell lines; format: cell-based, human; settings: all but one (MM87) of the cell lines overexpressing MDM4; nutlin-3 at high concentrations
Protocol: Cells, adult tissue samples, or tumors were lysed in Giordano buffer (50 mM Tris-HCl (pH 7.4); 250 mM NaCl; 0.1% Triton X-100; 5 mM EDTA) containing phosphatase and protease inhibitors (Sigma). The adult tissue samples were sonicated three times 10 sec. […] The fractionated extracts were then transferred to a PVDF membrane (iBlot® Dry Blotting System). Membranes were blocked in Tris-buffered saline, 0.2% Tween-20 (TBST) containing 5% or 10% non-fat dry milk, and subsequently incubated with the appropriate primary antibody. Membranes were washed five times with TBST and incubated with either horseradish peroxidase-conjugated horse anti-mouse or goat anti-rabbit secondary antibody (Cell Signaling). After five washes with TBST, proteins were detected by enhanced chemiluminescense “ECL Western Blotting Detection Reagents” (Amersham Biosciences) or “SuperSignal West Femto Maximum Sensitivity Substrate” (Thermo Scientific) and visualized by exposure to X-ray film (Amersham Biosciences).

| SMILES | growth inhibition, alkylating agent alone [3] | growth inhibition, alkylating agent alone [4] | p53 protein levels and p21 expression [5] | other results |
| --- | --- | --- | --- | --- |
| CC[n+]1c(/C=C/N(C)c2ccccc2)n(-c2ccccc2)c2ccc(-c3nc4ccccc4s3)cc21.[I-] [Akt IV inhibitor] |  |  |  | protein expression level of MDM4 [1]: down-regulate; protein expression level of MDM4 [2]: down-regulate |
| N.N.[Cl][Pt][Cl] [cisplatin] | variable growth inhibition effects | variable growth inhibition effects |  |  |
| COc1cccc2c1C(=O)c1c(O)c3c(c(O)c1C2=O)C[C@@](O)(C(=O)CO)C[C@@H]3O[C@H]1C[C@H](N)[C@H](O)[C@H](C)O1 [doxorubicin] |  |  | increased p53 protein levels and induction of expression of p21 |  |
| N[C@@H](Cc1ccc(N(CCCl)CCCl)cc1)C(=O)O [melphalan] | variable growth inhibition effects | variable growth inhibition effects |  |  |
| COc1ccc(C2=N[C@@H](c3ccc(Cl)cc3)[C@@H](c3ccc(Cl)cc3)N2C(=O)N2CCNC(=O)C2)c(OC(C)C)c1 [nutlin-3] |  |  | increased p53 protein levels and induction of expression of p21 |  |
